From publication PMC9166630, “SAR Probing of KX2-391 Provided Analogues With Juxtaposed Activity Profile Against Major Oncogenic Kinases” (Frontiers in Oncology, 2022) come the findings set out here.

Details in all cases: 4e 0.1 µM, HL60 lysate
For experiment [1], the target named is T1, EphA3 (Homo sapiens, UniProt P29320).
T1 construct: endogenous in cells; host or cells: HL60 lysate
T1 sequence (P29320 21-983): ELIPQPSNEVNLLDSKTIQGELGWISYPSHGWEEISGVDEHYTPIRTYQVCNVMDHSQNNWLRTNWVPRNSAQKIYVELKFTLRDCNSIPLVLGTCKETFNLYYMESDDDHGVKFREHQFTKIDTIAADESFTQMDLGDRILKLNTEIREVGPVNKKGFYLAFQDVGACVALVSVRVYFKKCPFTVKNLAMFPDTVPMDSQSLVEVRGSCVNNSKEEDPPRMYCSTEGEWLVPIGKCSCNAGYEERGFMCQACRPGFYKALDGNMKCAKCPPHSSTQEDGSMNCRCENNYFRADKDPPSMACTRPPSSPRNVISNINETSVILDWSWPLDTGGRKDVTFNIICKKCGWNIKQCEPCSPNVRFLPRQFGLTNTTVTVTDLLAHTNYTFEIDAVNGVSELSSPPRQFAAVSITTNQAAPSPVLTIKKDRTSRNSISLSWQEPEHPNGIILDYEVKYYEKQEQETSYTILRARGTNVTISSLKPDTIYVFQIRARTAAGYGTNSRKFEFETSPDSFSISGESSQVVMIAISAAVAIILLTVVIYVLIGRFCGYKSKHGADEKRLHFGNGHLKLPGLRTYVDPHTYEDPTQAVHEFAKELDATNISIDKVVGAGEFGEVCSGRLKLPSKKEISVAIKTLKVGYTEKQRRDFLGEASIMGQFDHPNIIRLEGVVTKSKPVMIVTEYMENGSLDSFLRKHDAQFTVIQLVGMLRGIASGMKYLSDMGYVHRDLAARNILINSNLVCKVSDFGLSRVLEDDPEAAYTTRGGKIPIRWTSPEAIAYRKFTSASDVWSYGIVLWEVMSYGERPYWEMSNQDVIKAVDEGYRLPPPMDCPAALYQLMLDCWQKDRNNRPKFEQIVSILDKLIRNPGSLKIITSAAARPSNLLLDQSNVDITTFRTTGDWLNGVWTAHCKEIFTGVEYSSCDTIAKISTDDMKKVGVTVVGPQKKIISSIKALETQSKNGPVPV
The experiment is described as follows: PamChip tyrosine kinase microarray, EphA3. It counts as biochemical. As to the method:
(§1) The changes in kinase activities induced by treatment with 4e were monitored within the HL60 cell lines using PamGene’s (Hertogenbosch, Netherlands) PamChip® peptide microarray profiler, which quantifies the activities of 144 tyrosine kinases (YK) ([29], [30]) (Figure 7). Results are provided as a log fold change (LFC) heatmap and Mean Kinase Statistic. From the LFC it is apparent that compound 4e, at a concentration of 0.1 µM, induced sizable changes to the activity of several kinases within the cell signaling YK profile (Figure 7A).
(§2) An Upstream Kinase tool was used to generate a putative list of kinases responsible for phosphorylating the phospho-sites on the PamChip (Figure 7B) ([31]). It is an interpretation and is highly dependent on the contents of the underlying phosphorylation databases. A Kinase Score was used for ranking kinases based on their significance and specificity in terms of the set of peptides used for the corresponding kinase. Kinase Statistics indicates the overall change of the peptide set that represents the kinase. Kinase statistics value <0 indicates lower kinase activity in the compound spiked lysate and vice versa ([32], [33]). Table 5 lists the 20 most changed kinases within treated HL60 cell lysates by 0.1 μM 4e, ranked according to their Kinase Score.
(§3) The compound 4e was spiked into HL60 cell lysate at different concentrations (0.001, 0.01, 0.1, 1, 10 and 50 μM). In addition, DMSO was also spiked in HL60 lysate at low concentration (2% v/v) as control. Samples were profiled on PamGene’s Tyrosine Kinase (PTK) arrays in technical replicates, covering a total of 196 phosphorylation sites. Frozen HL60 cultured cell pellet was sent to PamGene. At PamGene, cells were lysed using a lysis buffer and proteases inhibitors cocktail. Protein concentration was measured using standard Bradford assay as per PamGene SOPs. These lysates were further used for generating the PTK activity profiles. For spiking, 4e was received as powder form and dissolved in DMSO at PamGene facility followed by storing at -20°C in small aliquots. PamGene used its in-house bioinformatics toolbox in combination with other methods to generate hypotheses of signaling pathways.

In experiment [2] the target is T2, ITK (Homo sapiens, UniProt Q08881).
T2 construct: endogenous in cells; host or cells: HL60 lysate
T2 sequence (Q08881 1-620): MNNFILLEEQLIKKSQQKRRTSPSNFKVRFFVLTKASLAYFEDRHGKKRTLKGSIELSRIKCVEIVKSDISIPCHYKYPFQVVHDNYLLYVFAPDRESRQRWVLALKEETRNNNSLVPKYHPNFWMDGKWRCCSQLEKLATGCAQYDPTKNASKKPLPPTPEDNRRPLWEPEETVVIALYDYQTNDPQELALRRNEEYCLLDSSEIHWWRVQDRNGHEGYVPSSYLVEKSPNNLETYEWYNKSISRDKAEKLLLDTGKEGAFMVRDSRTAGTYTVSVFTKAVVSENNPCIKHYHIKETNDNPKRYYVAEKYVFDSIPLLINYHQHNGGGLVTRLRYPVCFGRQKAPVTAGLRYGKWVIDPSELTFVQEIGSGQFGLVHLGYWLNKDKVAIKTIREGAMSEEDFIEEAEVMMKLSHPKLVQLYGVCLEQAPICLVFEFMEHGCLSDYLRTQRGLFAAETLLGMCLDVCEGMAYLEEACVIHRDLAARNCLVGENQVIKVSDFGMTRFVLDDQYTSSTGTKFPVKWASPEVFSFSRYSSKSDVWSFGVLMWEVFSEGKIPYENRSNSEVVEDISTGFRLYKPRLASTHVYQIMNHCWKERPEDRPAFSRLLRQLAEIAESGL
The experiment is described as follows: PamChip tyrosine kinase microarray, ITK. It counts as biochemical. The procedure: as §1, §2, §3

For experiment [3], the system named is Lck. Kind of experiment: PamChip tyrosine kinase microarray, Lck. It is filed as biochemical, human. The procedure:
as §1, §2
The two multiple-kinase tests (PamChip and Phosphokinase Profiler) provided strong evidence of very minor involvement of Src in the cellular activities of 4e. However, the question must be raised about the effect of the 4e on other SRC family kinase (SFK). To address this point, we must highlight that both R&D phosphokinase profiler and PamChip feature Yes, Fgr, Lyn, Lck and Src while Fyn, Hck, Blk and Frk activities are tested in the PamChip only. The signals of SFKs in the R&D Phosphokinase Profiler were too weak to detect in both untreated (control) and 4e-treated HL60 cells. In PamChip assay, most of SFK’s were not ranked in the top 20 affected kinases (Table 5). In addition, their Specificity Score were very low (Table 6) indicating their marginal importance to the cell killing activities of 4e. Fgr kinase which ranked 7th in the list (Table 5) was the only SFK member that seems to be affected by the compound, albeit with low Specificity Score (1.03).
The compound 4e was spiked into HL60 cell lysate at different concentrations (0.001, 0.01, 0.1, 1, 10 and 50 μM). In addition, DMSO was also spiked in HL60 lysate at low concentration (2% v/v) as control. Samples were profiled on PamGene’s Tyrosine Kinase (PTK) arrays in technical replicates, covering a total of 196 phosphorylation sites. Frozen HL60 cultured cell pellet was sent to PamGene. […] Protein concentration was measured using standard Bradford assay as per PamGene SOPs. […]

Turning to `O=C(Cc1ccc(NC(=O)c2cccc(Cl)c2)cc1)NCc1ccccc1` [Compound 4e, N-(4-(2-(benzylamino)-2-oxoethyl)phenyl)-3-chlorobenzamide], in experiment [1], the “Mean Final Score” value is 1.9564, the “Mean Kinase Statistic” value was -0.6074, the “Mean Significance Score” value was 1.4547 and the “Mean Specificity Score” value is 0.5017. Moreover, in experiment [2], the “Mean Final Score” value turned out to be 1.9173, the “Mean Kinase Statistic” value is on record as -0.5666, the “Mean Significance Score” value was found to be 1.0723 and the “Mean Specificity Score” value is 0.8451. In experiment [3], the “Mean Final Score” value came to 1.2290, the “Mean Kinase Statistic” value is on record as -0.5054, the “Mean Significance Score” value was found to be 0.8208 and the “Mean Specificity Score” value was 0.4082.
